Data as given in PubChem BioAssay (NCI).
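Following 48 hours of exposure in 96-well plates, responses at five concentrations were used to interpolate endpoints linearly. TGI is the concentration that stops growth completely.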

Assays:
Assay in all cases: NCI tumour cell line growth inhibition, 48 h
[1] = tested on: HCC-2998 colon
[2] = tested on: UACC-62 melanoma
[3] = tested on: MOLT-4 leukemia
[4] = tested on: UO-31 renal
[5] = tested on: A549 NSCLC
[6] = tested on: UACC-257 melanoma
[7] = tested on: NCI-H226 lung
[8] = tested on: EKVX NSCLC
[9] = tested on: SNB-75 CNS
[10] = tested on: SF-268 CNS
[11] = tested on: OVCAR-5 ovarian
[12] = tested on: SK-MEL-2 melanoma
[13] = tested on: OVCAR-3 ovarian
[14] = tested on: SK-OV-3 ovarian
[15] = tested on: NCI-H522 lung
[16] = tested on: U251 CNS
[17] = tested on: LXFL 529 NSCLC
[18] = tested on: NCI-H460 lung
[19] = tested on: NCI-H23 lung
[20] = tested on: DMS 273 small cell lung
[21] = tested on: SN12C renal
[22] = tested on: HCT-15 colon
[23] = tested on: COLO 205 colon
[24] = tested on: M14 melanoma
[25] = tested on: SF-295 CNS
[26] = tested on: DMS 114 small cell lung
[27] = tested on: KM12 colon
[28] = tested on: SF-539 CNS
[29] = tested on: LOX IMVI melanoma
[30] = tested on: TK-10 renal
[31] = tested on: KM20L2 colon
[32] = tested on: A498 renal
[33] = tested on: 786-0 renal
[34] = tested on: SK-MEL-28 melanoma
[35] = tested on: HT29 colon
[36] = tested on: OVCAR-4 ovarian
[37] = tested on: HOP-18 NSCLC
[38] = tested on: SNB-78 CNS
[39] = tested on: SK-MEL-5 melanoma
[40] = tested on: OVCAR-8 ovarian
[41] = tested on: SW-620 colon
[42] = tested on: HOP-92 NSCLC
[43] = tested on: CCRF-CEM leukemia
[44] = tested on: HL-60(TB) leukemia
[45] = tested on: SNB-19 CNS
[46] = tested on: CAKI-1 renal
[47] = tested on: IGROV1 ovarian
[48] = tested on: RXF 393 renal
[49] = tested on: M19-MEL melanoma
[50] = tested on: K-562 leukemia
[51] = tested on: MALME-3M melanoma
[52] = tested on: HOP-62 NSCLC
[53] = tested on: ACHN renal
[54] = tested on: DLD-1 colon
[55] = tested on: HCT-116 colon
[56] = tested on: XF 498 CNS
[57] = tested on: RPMI-8226 leukemia
[58] = tested on: SR leukemia

With `Cc1cccc(C)c1NC(=O)C(=O)C(C#N)c1ccccc1` (configuration not stated) the TGI [1] was greater than 100 µM, the TGI [2] was greater than 100 µM and the TGI [3] was greater than 100 µM. The TGI [4] was greater than 100 µM, the TGI [5] was greater than 100 µM and the TGI [6] was greater than 100 µM. It also gave a TGI [7] greater than 100 µM, a TGI [8] greater than 100 µM and a TGI [9] greater than 100 µM. For the same compound, the TGI [10] was greater than 100 µM, the TGI [11] was greater than 100 µM and the TGI [12] was greater than 100 µM. It also gave a TGI [13] greater than 100 µM, a TGI [14] greater than 100 µM and a TGI [15] greater than 100 µM. The TGI [16] was greater than 100 µM, the TGI [17] was greater than 100 µM and the TGI [18] was greater than 100 µM. It also gave a TGI [19] greater than 100 µM, a TGI [20] greater than 100 µM and a TGI [21] greater than 100 µM. It also gave a TGI [22] greater than 100 µM, a TGI [23] greater than 100 µM and a TGI [24] greater than 100 µM. The TGI [25] was greater than 100 µM, the TGI [26] was greater than 100 µM and the TGI [27] was greater than 100 µM. The TGI [28] was greater than 100 µM, the TGI [29] was greater than 100 µM and the TGI [30] was greater than 100 µM. The TGI [31] was greater than 100 µM, the TGI [32] was greater than 100 µM and the TGI [33] was greater than 100 µM. The TGI [34] was greater than 100 µM, the TGI [35] was greater than 100 µM and the TGI [36] was greater than 100 µM. It also gave a TGI [37] greater than 100 µM, a TGI [38] greater than 100 µM and a TGI [39] greater than 100 µM. For the same compound, the TGI [40] was greater than 100 µM, the TGI [41] was greater than 100 µM and the TGI [42] was greater than 100 µM. For the same compound, the TGI [43] was greater than 100 µM, the TGI [44] was greater than 100 µM and the TGI [45] was greater than 100 µM. It also gave a TGI [46] greater than 100 µM, a TGI [47] greater than 100 µM and a TGI [48] greater than 100 µM. It also gave a TGI [49] greater than 100 µM, a TGI [50] greater than 100 µM and a TGI [51] greater than 100 µM. It also gave a TGI [52] greater than 100 µM, a TGI [53] greater than 100 µM and a TGI [54] greater than 100 µM. It also gave a TGI [55] greater than 100 µM and a TGI [56] greater than 100 µM.
For `O=C(c1ccccc1)c1ccc2cccc(OC3OC(CO)C(O)C(O)C3O)c2n1` (configuration not stated), the TGI [1] was greater than 100 µM, the TGI [2] was greater than 100 µM and the TGI [3] was greater than 100 µM. The TGI [4] was greater than 100 µM, the TGI [5] was greater than 100 µM and the TGI [6] was greater than 100 µM. For the same compound, the TGI [7] was greater than 100 µM, the TGI [8] was greater than 100 µM and the TGI [57] was greater than 100 µM. For the same compound, the TGI [9] was greater than 100 µM, the TGI [10] was greater than 100 µM and the TGI [11] was greater than 100 µM. The TGI [12] was greater than 100 µM, the TGI [13] was greater than 100 µM and the TGI [58] was greater than 100 µM. The TGI [15] was greater than 100 µM, the TGI [16] was greater than 100 µM and the TGI [17] was greater than 100 µM. The TGI [18] was greater than 100 µM, the TGI [19] was greater than 100 µM and the TGI [20] was greater than 100 µM. The TGI [21] was greater than 100 µM, the TGI [22] was greater than 100 µM and the TGI [23] was greater than 100 µM. It also gave a TGI [24] greater than 100 µM, a TGI [25] greater than 100 µM and a TGI [26] greater than 100 µM. The TGI [27] was greater than 100 µM, the TGI [28] was greater than 100 µM and the TGI [29] was greater than 100 µM. For the same compound, the TGI [30] was greater than 100 µM, the TGI [31] was greater than 100 µM and the TGI [32] was 82 µM. For the same compound, the TGI [33] was greater than 100 µM, the TGI [34] was greater than 100 µM and the TGI [35] was greater than 100 µM. It also gave a TGI [36] greater than 100 µM, a TGI [37] greater than 100 µM and a TGI [38] greater than 100 µM. The TGI [39] was greater than 100 µM, the TGI [40] was greater than 100 µM and the TGI [41] was greater than 100 µM. For the same compound, the TGI [45] was greater than 100 µM, the TGI [46] was greater than 100 µM and the TGI [47] was greater than 100 µM. For the same compound, the TGI [48] was greater than 100 µM, the TGI [50] was greater than 100 µM and the TGI [51] was greater than 100 µM. The TGI [52] was greater than 100 µM, the TGI [53] was greater than 100 µM and the TGI [54] was greater than 100 µM. It also gave a TGI [55] greater than 100 µM and a TGI [56] greater than 100 µM.
`CCOC(=O)[C@H]1Nc2ccc(Cl)cc2[C@H]2CCC[C@@H]12` showed a TGI [1] greater than 100 µM, a TGI [2] greater than 100 µM and a TGI [3] greater than 100 µM. For the same compound, the TGI [4] was greater than 100 µM, the TGI [5] was greater than 100 µM and the TGI [6] was 62.2 µM. It also gave a TGI [7] greater than 100 µM, a TGI [8] greater than 100 µM and a TGI [57] greater than 100 µM. For the same compound, the TGI [9] was greater than 100 µM, the TGI [10] was greater than 100 µM and the TGI [11] was greater than 100 µM. The TGI [12] was greater than 100 µM, the TGI [13] was greater than 100 µM and the TGI [58] was greater than 100 µM. It also gave a TGI [15] greater than 100 µM, a TGI [16] greater than 100 µM and a TGI [17] greater than 100 µM. For the same compound, the TGI [18] was greater than 100 µM, the TGI [19] was greater than 100 µM and the TGI [20] was greater than 100 µM. The TGI [21] was greater than 100 µM, the TGI [22] was greater than 100 µM and the TGI [23] was greater than 100 µM. It also gave a TGI [24] greater than 100 µM, a TGI [25] greater than 100 µM and a TGI [26] greater than 100 µM. For the same compound, the TGI [27] was greater than 100 µM, the TGI [28] was greater than 100 µM and the TGI [29] was greater than 100 µM. It also gave a TGI [30] greater than 100 µM, a TGI [31] greater than 100 µM and a TGI [33] greater than 100 µM. The TGI [34] was greater than 100 µM, the TGI [35] was greater than 100 µM and the TGI [36] was greater than 100 µM. It also gave a TGI [37] greater than 100 µM, a TGI [38] greater than 100 µM and a TGI [39] greater than 100 µM. The TGI [40] was greater than 100 µM, the TGI [41] was greater than 100 µM and the TGI [45] was greater than 100 µM. For the same compound, the TGI [46] was greater than 100 µM, the TGI [47] was greater than 100 µM and the TGI [48] was 64.4 µM. For the same compound, the TGI [49] was greater than 100 µM, the TGI [50] was greater than 100 µM and the TGI [51] was greater than 100 µM. For the same compound, the TGI [52] was greater than 100 µM, the TGI [53] was greater than 100 µM and the TGI [54] was greater than 100 µM. It also gave a TGI [55] greater than 100 µM and a TGI [56] greater than 100 µM.
